Data published in PubChem BioAssay (NCI).
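Cells were grown in 96-well plates and exposed to each compound for 48 hours at five concentrations; endpoints were interpolated linearly between bracketing concentrations, or set to the highest concentration if not reached. TGI: total growth inhibition.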

Columns and labels:
Assay in all cases: DTP human tumour cell line panel, 48 h
[1] = system: SK-OV-3 ovarian
[2] = system: CCRF-CEM leukemia
[3] = system: XF 498 CNS
[4] = system: SF-268 CNS
[5] = system: SF-539 CNS
[6] = system: K-562 leukemia
[7] = system: SK-MEL-5 melanoma
[8] = system: EKVX NSCLC
[9] = system: NCI-H226 lung
[10] = system: MDA-MB-435
[11] = system: IGROV1 ovarian
[12] = system: SNB-75 CNS
[13] = system: KM12 colon
[14] = system: T-47D breast
[15] = system: NCI/ADR-RES ovarian
[16] = system: SR leukemia
[17] = system: TK-10 renal
[18] = system: NCI-H23 lung
[19] = system: SF-295 CNS
[20] = system: M19-MEL melanoma
[21] = system: A549 NSCLC
[22] = system: MOLT-4 leukemia
[23] = system: COLO 205 colon
[24] = system: KM20L2 colon
[25] = system: HL-60(TB) leukemia
[26] = system: RXF 393 renal
[27] = system: SK-MEL-2 melanoma
[28] = system: 786-0 renal
[29] = system: M14 melanoma
[30] = system: UACC-257 melanoma
[31] = system: U251 CNS
[32] = system: HOP-62 NSCLC
[33] = system: NCI-H460 lung
[34] = system: HT29 colon
[35] = system: LXFL 529 NSCLC
[36] = system: OVCAR-5 ovarian
[37] = system: MDA-MB-231 breast
[38] = system: SN12C renal
[39] = system: SK-MEL-28 melanoma
[40] = system: PC-3 prostate
[41] = system: DLD-1 colon
[42] = system: UO-31 renal
[43] = system: HS 578T breast
[44] = system: MALME-3M melanoma
[45] = system: RPMI-8226 leukemia
[46] = system: DU-145 prostate
[47] = system: UACC-62 melanoma
[48] = system: SNB-19 CNS
[49] = system: DMS 273 small cell lung
[50] = system: CAKI-1 renal
[51] = system: OVCAR-8 ovarian
[52] = system: MDA-N
[53] = system: NCI-H522 lung
[54] = system: DMS 114 small cell lung
[55] = system: ACHN renal
[56] = system: HCT-15 colon
[57] = system: LOX IMVI melanoma
[58] = system: OVCAR-4 ovarian
[59] = system: HCC-2998 colon
[60] = system: OVCAR-3 ovarian
[61] = system: HCT-116 colon
[62] = system: BT-549 breast
[63] = system: SW-620 colon
[64] = system: A498 renal
[65] = system: MCF7 breast
[66] = system: SNB-78 CNS
[67] = system: HOP-18 NSCLC
[68] = system: HOP-92 NSCLC
[69] = system: RXF-631 renal

O=S(=O)(c1ccccc1)C1CN(Cc2ccccc2)CCN(Cc2ccccc2)C1
TGI [1]: > 100 µM
TGI [2]: > 100 µM
TGI [3]: 63 µM
TGI [4]: 97.7 µM
TGI [5]: > 100 µM
TGI [6]: > 100 µM
TGI [7]: 59.3 µM
TGI [8]: > 100 µM
TGI [9]: > 100 µM
TGI [10]: 86.6 µM
TGI [11]: > 100 µM
TGI [12]: > 100 µM
TGI [13]: > 100 µM
TGI [14]: > 100 µM
TGI [15]: 78.1 µM
TGI [16]: > 100 µM
TGI [17]: > 100 µM
TGI [18]: > 100 µM
TGI [19]: > 100 µM
TGI [20]: > 100 µM
TGI [21]: > 100 µM
TGI [22]: > 100 µM
TGI [23]: > 100 µM
TGI [24]: > 100 µM
TGI [25]: 34.4 µM
TGI [26]: 43.3 µM
TGI [27]: > 100 µM
TGI [28]: > 100 µM
TGI [29]: > 100 µM
TGI [30]: > 100 µM
TGI [31]: > 100 µM
TGI [32]: > 100 µM
TGI [33]: > 100 µM
TGI [34]: > 100 µM
TGI [35]: > 100 µM
TGI [36]: > 100 µM
TGI [37]: > 100 µM
TGI [38]: > 100 µM
TGI [39]: > 100 µM
TGI [40]: 45.3 µM
TGI [41]: 84.7 µM
TGI [42]: 77.3 µM
TGI [43]: > 100 µM
TGI [44]: > 86.3 µM
TGI [45]: 53.4 µM
TGI [46]: > 100 µM
TGI [47]: > 68.1 µM
TGI [48]: > 100 µM
TGI [49]: > 100 µM
TGI [50]: 98.9 µM
TGI [51]: > 60.3 µM
TGI [52]: 59.5 µM
TGI [53]: 34.1 µM
TGI [54]: > 100 µM
TGI [55]: > 100 µM
TGI [56]: > 100 µM
TGI [57]: > 61.5 µM
TGI [58]: > 72.6 µM
TGI [59]: > 100 µM
TGI [60]: > 95.8 µM
TGI [61]: > 100 µM
TGI [62]: > 100 µM
TGI [63]: > 78.7 µM
TGI [64]: > 100 µM
TGI [65]: > 100 µM

COC(=O)c1c/c(=N\NC(=O)CC(=O)Nc2ccc(C)cc2)c2ccccc2o1
TGI [1]: > 100 µM
TGI [2]: > 100 µM
TGI [66]: > 100 µM
TGI [3]: > 100 µM
TGI [4]: > 100 µM
TGI [5]: > 100 µM
TGI [6]: > 100 µM
TGI [7]: > 100 µM
TGI [8]: > 100 µM
TGI [9]: > 100 µM
TGI [67]: > 100 µM
TGI [11]: > 100 µM
TGI [12]: > 100 µM
TGI [13]: > 100 µM
TGI [16]: > 100 µM
TGI [17]: > 100 µM
TGI [18]: > 100 µM
TGI [19]: > 100 µM
TGI [20]: > 100 µM
TGI [21]: > 100 µM
TGI [22]: > 100 µM
TGI [23]: > 100 µM
TGI [24]: > 100 µM
TGI [25]: > 100 µM
TGI [26]: > 100 µM
TGI [27]: > 100 µM
TGI [28]: > 100 µM
TGI [29]: > 100 µM
TGI [30]: > 100 µM
TGI [31]: > 100 µM
TGI [32]: > 100 µM
TGI [33]: > 100 µM
TGI [34]: > 100 µM
TGI [35]: > 100 µM
TGI [36]: > 100 µM
TGI [38]: > 100 µM
TGI [39]: > 100 µM
TGI [41]: > 100 µM
TGI [42]: > 100 µM
TGI [44]: > 100 µM
TGI [45]: > 100 µM
TGI [47]: > 100 µM
TGI [48]: > 100 µM
TGI [49]: > 100 µM
TGI [50]: > 100 µM
TGI [51]: > 100 µM
TGI [53]: > 100 µM
TGI [54]: > 100 µM
TGI [55]: > 100 µM
TGI [56]: > 100 µM
TGI [57]: > 100 µM
TGI [58]: > 100 µM
TGI [60]: > 100 µM
TGI [61]: > 100 µM
TGI [63]: > 100 µM
TGI [68]: > 100 µM
TGI [64]: > 100 µM

O=[N+]([O-])c1ccc(C2N3CCCCC3[C@@H]3c4[nH]c5ccccc5c4CCN23)cc1 (stereo not given in full)
TGI [1]: > 100 µM
TGI [2]: 64.4 µM
TGI [66]: 21.6 µM
TGI [3]: 33.9 µM
TGI [4]: 43 µM
TGI [5]: 29.9 µM
TGI [6]: > 100 µM
TGI [7]: 28.2 µM
TGI [8]: > 100 µM
TGI [67]: > 100 µM
TGI [11]: > 100 µM
TGI [12]: 3.29 µM
TGI [16]: > 100 µM
TGI [17]: 51.1 µM
TGI [18]: 35.7 µM
TGI [19]: > 100 µM
TGI [20]: 24.4 µM
TGI [21]: > 100 µM
TGI [22]: 49.6 µM
TGI [23]: 38 µM
TGI [24]: 24.5 µM
TGI [25]: > 100 µM
TGI [26]: 18.9 µM
TGI [27]: 33 µM
TGI [28]: > 100 µM
TGI [29]: 38.9 µM
TGI [30]: 41.2 µM
TGI [31]: 58.1 µM
TGI [32]: 47.9 µM
TGI [33]: 40.9 µM
TGI [34]: 16 µM
TGI [35]: > 100 µM
TGI [36]: 56.5 µM
TGI [38]: 32.3 µM
TGI [39]: 42 µM
TGI [41]: 57.7 µM
TGI [42]: 81.8 µM
TGI [45]: > 100 µM
TGI [47]: 18.6 µM
TGI [48]: 67.1 µM
TGI [49]: > 100 µM
TGI [50]: > 100 µM
TGI [51]: > 100 µM
TGI [54]: 22 µM
TGI [55]: 43.8 µM
TGI [56]: 59.1 µM
TGI [58]: > 100 µM
TGI [60]: 38.6 µM
TGI [61]: 19.7 µM
TGI [63]: > 100 µM
TGI [68]: > 100 µM
TGI [64]: 36.5 µM
TGI [69]: > 100 µM
